Measurements taken from article PMC9740789, “Investigation of In Vitro and In Vivo Metabolism of α-Amanitin in Rats Using Liquid Chromatography-Quadrupole Time-of-Flight Mass Spectrometric Method” (Molecules, 2022).
Where two headings read alike, the source gives them in different places.

Assays:
[1] = format: in vitro ADME, rat; settings: for Long-term stability, mean accuracy / Freeze-thaw stability, mean accuracy / Short-term stability, mean accuracy: rat plasma, LC-qTOF-MS, triplicate or more; for Long-term stability, mean accuracy: 2 weeks, –20 °C; for Freeze-thaw stability, mean accuracy: 3 cycles, –20 °C and RT; for Short-term stability, mean accuracy: 4 h, RT
Experimental: To evaluate the stability of α-amanitin in rat plasma under the actual experimental environments, some stability tests were also conducted. The accuracy (%) and precision (% CV) of the stability test met the acceptance criteria of ±25%, identifying α-amanitin was stable under the short-term, long-term, and freeze-thaw conditions.
The method qualification was performed with “fit-for-purpose” criteria which are suitable for discovery stage research. The qualification contained seven levels of STD and three levels of QC in duplicate. […] Preliminary stability tests were performed at low, medium, and high QC in rat plasma. The stability test was performed under three different conditions: a short-term, a long-term, and a freeze-thaw condition. The short-term stability test was conducted at room temperature (RT) for 4 h. The long-term stability was conducted at –20 °C for 2 weeks. The freeze-thaw stability was conducted for three freeze and thaw cycles at –20 °C and RT. The extraction recovery of protein precipitation was evaluated by analyzing the difference between extracted Medium-QC (165 ng/mL) samples and post-extraction QC samples. The post-extraction QC sample was prepared by spiking the α-amanitin after protein precipitation.
The precision and accuracy of the acceptance criteria for this qualification runs were within ± 25% which are also similar to the discovery-stage bioanalytical criteria in pharmaceutical industry. All experiments were performed in triplicate or more.

[2] = Rat in vivo MetID in pooled rat plasma; settings: pooled rat plasma after IV 1 mg/kg
Experimental: Therefore, in vitro and in vivo MetID were conducted to explore any possible different metabolites between the two systems. The in vitro and in vivo MetID samples were analyzed by a LC-qTOF-MS, and the data were used to elucidate a metabolite of α-amanitin using PeakView® and MetabolitePilot™. The structure of the metabolite of α-amanitin was predicted by MetabolitePilot™. The fragmentation pattern of the predicted metabolite ion from product ion scan was compared to the fragmentation pattern of the parent ion using PeakView®.
For rat in vivo MetID, rat plasma samples collected after IV administration of α-amanitin with the dose of 1 mg/kg were pooled according to the Hamilton pooling method. Then 3 μL of DMSO was added to the 300 μL of pooled rat plasma. A control sample was made by mixing 300 μL of blank rat plasma and 3 μL of 0.5 mg/mL α-amanitin. Eight hundred microliter of 50% ACN in MeOH was added to the pooled rat plasma mixture and a control sample, respectively. Then the mixture was centrifuged at 10,000 rpm for 5 min. Then 900 μL of the supernatants was collected to a fresh E-tube and evaporated for 4 h. After evaporation, samples were reconstituted with 120 μL of 50% MeOH with 5 mM ammonium formate. After centrifugation at 10,000 rpm for 5 min, 100 μL of reconstituted sample was transferred to a LC-vial.
The high-resolution TOF full scan was used for metabolite profiling. […]

[3] = Semi-mass balance study in rats; format: in vivo, rat; settings: for dose excreted: Sprague-Dawley, rat
Experimental: The excretion characteristic of α-amanitin after IV and PO administration is shown in Table 7, and the time to recovery of α-amanitin profile is shown in Figure 5. The recovery represents the percentage of the excreted amount (mg) to the administrated amount (mg).
A semi-mass balance study was performed to explore the major elimination route of α-amanitin in rats. A non-radiolabeled α-amanitin was used for the semi-mass balance study which seems acceptable due to low metabolic turn-over of α-amanitin.
For the semi-mass balance study, the housed rats were prepared with a bile duct cannulation and administrated by IV bolus in a lateral tail vein or by PO at 1 mg/kg for each dosing route. Urine and feces were collected using a metabolic cage (Jeungdo Bio & Plant co., Seoul, Republic of Korea), and bile was collected through a bile duct cannula. The sampling time interval were 0–4, 4–8, 8–24, and 24–48 h after administration. The urine, bile, and feces samples were stored at –20 °C until further analysis.

Structure (SMILES): CC[C@H](C)[C@@H]1NC(=O)CNC(=O)[C@@H]2Cc3c([nH]c4cc(O)ccc34)[S@+]([O-])C[C@H](NC(=O)CNC1=O)C(=O)N[C@@H](CC(N)=O)C(=O)N1C[C@H](O)C[C@H]1C(=O)N[C@@H]([C@@H](C)[C@@H](O)CO)C(=O)N2 [α-amanitin]
- Long-term stability, mean accuracy ([1]; high QC 1820 ng/mL): 103%
- Long-term stability, mean accuracy ([1]; low QC 15.0 ng/mL): 106%
- Long-term stability, mean accuracy ([1]; medium QC 165 ng/mL): 118%
- Freeze-thaw stability, mean accuracy ([1]; high QC 1820 ng/mL): 114%
- Freeze-thaw stability, mean accuracy ([1]; low QC 15.0 ng/mL): 94.9%
- Freeze-thaw stability, mean accuracy ([1]; medium QC 165 ng/mL): 103%
- Short-term stability, mean accuracy ([1]; high QC 1820 ng/mL): 95.7%
- Short-term stability, mean accuracy ([1]; low QC 15.0 ng/mL): 81.6%
- Short-term stability, mean accuracy ([1]; medium QC 165 ng/mL): 80.5%
- Stability in rat plasma (in words) ([1]; short-term, long-term, and freeze-thaw conditions, acceptance criteria ±25%): stable
- Other metabolites in in vivo rat plasma [2]: no other significant metabolites
- dose excreted ([3]; feces, bile duct cannulated rats, IV bolus 1 mg/kg, collection 0–48 h, excreted amount/administered amount, unchanged α-amanitin, LC-qTOF-MS, read-out: Recovery in feces): < 0.01%
- dose excreted ([3]; feces, bile duct cannulated rats, PO 1 mg/kg, collection 0–48 h, excreted amount/administered amount, unchanged α-amanitin, LC-qTOF-MS, read-out: Recovery in feces): 22%
- dose excreted ([3]; urine, bile duct cannulated rats, IV bolus 1 mg/kg, collection 0–48 h, excreted amount/administered amount, unchanged α-amanitin, LC-qTOF-MS, read-out: Recovery in urine): 67.9%
- dose excreted ([3]; urine, bile duct cannulated rats, PO 1 mg/kg, collection 0–48 h, excreted amount/administered amount, unchanged α-amanitin, LC-qTOF-MS, read-out: Recovery in urine): 1.45%
- dose excreted ([3]; bile duct cannulated rats, IV bolus 1 mg/kg, collection 0–48 h, excreted amount/administered amount, unchanged α-amanitin, LC-qTOF-MS, read-out: Recovery in bile): 1%
- dose excreted ([3]; bile duct cannulated rats, PO 1 mg/kg, collection 0–48 h, excreted amount/administered amount, unchanged α-amanitin, LC-qTOF-MS, read-out: Recovery in bile): 0.05%
- dose excreted ([3]; rats, IV 1 mg/kg, urine + bile + feces, 0–48 h, read-out: Total recovery): 68.9%
- dose excreted ([3]; rats, PO 1 mg/kg, urine + bile + feces, 0–48 h, read-out: Total recovery): 23.5%
- Time within which most of the administered α-amanitin was excreted in urine ([3]; rats, IV 1 mg/kg): ≤ 8 h
